Source: EP0139005A1, “ANTITUMOR COMPOSITION, METHOD FOR TREATING TUMOR, AND USE OF THE COMPOSITION FOR TREATING TUMOR” (Yoshitomi Pharmaceutical Industries, Ltd., priority 1982, dated 1984)

Key:
P388 leukemia = P388 leukemia implanted intraperitoneally, survival (Experimental Example 2); type: in vivo, female CDF1 mice; conditions: for 30-day Survivors / Average Survival Time / Life-Prolongation Ratio (%): once daily for seven days
Description: (§1) The life-prolongation ratio was calculated by the following scheme (the same scheme is applied to the subsequent experimental examples).
(§2) Life-prolongation Ratio [formula] T : Average survival days of the treated group
(§3) C : Average survival days of the control group
(§4) Animals survived over 30 days or longer were estimated as 30-day survivors, and the cases where T/C equals to or greater than 125% were regarded as effective.
A plurality of groups each consisting of five heads of female CDF1 mice (7-8 weeks old) were respectively implanted intraperitoneally with 10^6 cells of P388 leukemia. After 24 hours, Y-6430 and ESCC were respectively administered once daily for seven days, and average survival days, life-prolongation ratios and 30-day survivors in each group were calculated.

L1210 leukemia [1] = assay: L1210 leukemia implanted intraperitoneally, i.p. treatment, survival (Experimental Example 3); type: in vivo, female CDF1 mice; conditions: for Average Survival Time / Life-Prolongation Ratio (%): once daily for seven days; for effectiveness against L1210 leukemia: i.p., all doses of Table 4
Description: as §1, §2, §3, §4
A plurality of groups each consisting of five heads of female CDF1 mice (8 weeks old) were respectively implanted intraperitoneally with 10 cells of L1210 leukemia. After the next day of the implantation, Y-6430, ESCC and ESCC ethyl ester (hereinafter referred to ESCC-Et) in physiological saline were respectively administered once daily for seven days intraperitoneally, and the average survival days and life-prolongation ratios in each group were calculated.
(§5) All the test animals died of tumor within 30 days.

L1210 leukemia [2] = assay: L1210 leukemia implanted intraperitoneally, oral or subcutaneous treatment, survival (Experimental Example 4); type: in vivo, female CDF1 mice; conditions: for Average Survival Time / Life-Prolongation Ratio (%): once daily for seven days
Description: as §1, §2, §3, §4
A plurality of groups each consisting of five female CDF1 mice (7-8 weeks old) were respectively implanted intraperitoneally with 10 cells of L1210 leukemia. After the next day of the implantation, the test animals were administered orally or subcutaneously once daily for seven days with Y-6430 or ESCC dissolved in physiological saline, and the average survival days and life-prolongation ratios in each group were calculated.
as §5

experimental tumors = conditions: L. Nemeth et al., Arzneim.-Forsh./Drug Res. 28(II), 1119-1123 (1978); cited from earlier work
leukemia = conditions: R.H. Adamson, Nature 217, 751-752 (1968); cited from earlier work

CCNC(=O)SC[C@H](N)C(=O)O [ESCC, S-ethylcarbamoyl-L-cysteine, reference compound]
30-day Survivors (P388 leukemia; 100 mg/kg/day p.o.): 0/5 | Average Survival Time (P388 leukemia; 100 mg/kg/day p.o.): 10.2 days | Life-Prolongation Ratio (%) (P388 leukemia; 100 mg/kg/day p.o.): 102% | 30-day Survivors (P388 leukemia; 250 mg/kg/day p.o.): 0/5 | Average Survival Time (P388 leukemia; 250 mg/kg/day p.o.): 10.8 days | Life-Prolongation Ratio (%) (P388 leukemia; 250 mg/kg/day p.o.): 108% | 30-day Survivors (P388 leukemia; 500 mg/kg/day p.o.): 0/5 | Average Survival Time (P388 leukemia; 500 mg/kg/day p.o.): 10.8 days | Life-Prolongation Ratio (%) (P388 leukemia; 500 mg/kg/day p.o.): 108% | 30-day Survivors (P388 leukemia; 1,000 mg/kg/day p.o.): 0/5 | Average Survival Time (P388 leukemia; 1,000 mg/kg/day p.o.): 12.6 days | Life-Prolongation Ratio (%) (P388 leukemia; 1,000 mg/kg/day p.o.): 126% | effectiveness against P388 leukemia (P388 leukemia; summary of Tables 2 and 3, T/C equal to or greater than 125% regarded as effective): only slightly effective | Average Survival Time (L1210 leukemia [1]; 50 mg/kg/day i.p.): 8.0 days | Life-Prolongation Ratio (%) (L1210 leukemia [1]; 50 mg/kg/day i.p.): 108% | Average Survival Time (L1210 leukemia [1]; 100 mg/kg/day i.p.): 8.0 days | Life-Prolongation Ratio (%) (L1210 leukemia [1]; 100 mg/kg/day i.p.): 108% | Average Survival Time (L1210 leukemia [1]; 250 mg/kg/day i.p.): 9.0 days | Life-Prolongation Ratio (%) (L1210 leukemia [1]; 250 mg/kg/day i.p.): 122% | Average Survival Time (L1210 leukemia [1]; 500 mg/kg/day i.p.): 9.0 days | Life-Prolongation Ratio (%) (L1210 leukemia [1]; 500 mg/kg/day i.p.): 122% | effectiveness against L1210 leukemia (L1210 leukemia [1]): ineffective | Average Survival Time (L1210 leukemia [2]; 100 mg/kg/day s.c.): 8.0 days | Life-Prolongation Ratio (%) (L1210 leukemia [2]; 100 mg/kg/day s.c.): 100% | Average Survival Time (L1210 leukemia [2]; 250 mg/kg/day s.c.): 8.0 days | Life-Prolongation Ratio (%) (L1210 leukemia [2]; 250 mg/kg/day s.c.): 100% | Average Survival Time (L1210 leukemia [2]; 500 mg/kg/day p.o.): 8.0 days | Life-Prolongation Ratio (%) (L1210 leukemia [2]; 500 mg/kg/day p.o.): 98% | Average Survival Time (L1210 leukemia [2]; 500 mg/kg/day s.c.): 8.0 days | Life-Prolongation Ratio (%) (L1210 leukemia [2]; 500 mg/kg/day s.c.): 100% | Average Survival Time (L1210 leukemia [2]; 1,000 mg/kg/day p.o.): 9.2 days | Life-Prolongation Ratio (%) (L1210 leukemia [2]; 1,000 mg/kg/day p.o.): 112% | Average Survival Time (L1210 leukemia [2]; 2,000 mg/kg/day p.o.): 9.6 days | Life-Prolongation Ratio (%) (L1210 leukemia [2]; 2,000 mg/kg/day p.o.): 117% | effectiveness against L1210 leukemia (L1210 leukemia [2]; oral and subcutaneous administration): ineffective | effect against experimental tumors (experimental tumors): more excellent effect than S-carbamoyl-L-cysteine

CCNC(=O)SC[C@H](N)C(=O)OCC [ESCC-Et, ESCC ethyl ester]
Average Survival Time (L1210 leukemia [1]; 50 mg/kg/day i.p.): 8.2 days | Life-Prolongation Ratio (%) (L1210 leukemia [1]; 50 mg/kg/day i.p.): 103% | Average Survival Time (L1210 leukemia [1]; 100 mg/kg/day i.p.): 8.4 days | Life-Prolongation Ratio (%) (L1210 leukemia [1]; 100 mg/kg/day i.p.): 105% | Average Survival Time (L1210 leukemia [1]; 250 mg/kg/day i.p.): 9.0 days | Life-Prolongation Ratio (%) (L1210 leukemia [1]; 250 mg/kg/day i.p.): 113% | Average Survival Time (L1210 leukemia [1]; 500 mg/kg/day i.p.): 9.0 days | Life-Prolongation Ratio (%) (L1210 leukemia [1]; 500 mg/kg/day i.p.): 113% | effectiveness against L1210 leukemia (L1210 leukemia [1]): ineffective

NC(=O)SC[C@H](N)C(=O)O [S-carbamoyl-L-cysteine]
effectiveness against leukemia in mice (leukemia): effective
